Experimental data: US20060069132A1, “Azolecarboxamide herbicides” (priority 2004, published 2006)

Columns and labels:
giant foxtail [1] = assay: Test A pre-/postemergence herbicide test; format: in vivo, Setaria faberi
Method in brief: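 Visual injury rating on a 0–100 scale (0 no effect, 100 complete control) versus untreated controls, about ten days after treatment in greenhouse. Pre: directed soil spray onto seeded sandy loam. Post: spray to runoff on plants 2–10 cm tall at one- to two-leaf stage.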

giant foxtail [2] = assay: Test B pre-/postemergence herbicide test; format: in vivo, Setaria faberi; conditions: for Foxtail, Giant plant response rating: postemergence, visual rating
Method in brief: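 Formulation: non-phytotoxic solvent mix with surfactant. Timing: preemergence on seed and postemergence on 2–18 cm plants, applied concurrently. Readout after 13–15 d greenhouse: visual 0–100 control rating against controls.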

cocklebur = assay: Test C pre-/postemergence herbicide test; format: in vivo, Xanthium strumarium; conditions: for Cocklebur plant response rating: 500 g ai/ha
Method in brief: (§1)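 Pre- and postemergence application, solvent/surfactant formulation; post at 1- to 4-leaf stage (2–18 cm). Greenhouse 12–14 d. Visual rating vs controls, 0 = no effect, 100 = complete control.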

corn = assay: Test C pre-/postemergence herbicide test; format: in vivo, Zea mays; conditions: for Corn plant response rating: 500 g ai/ha
Method in brief: as §1

kochia = assay: Test C pre-/postemergence herbicide test; format: in vivo, Kochia scoparia; conditions: for Kochia plant response rating: 500 g ai/ha
Method in brief: as §1

yellow nutsedge = assay: Test C pre-/postemergence herbicide test; format: in vivo, Cyperus esculentus; conditions: for Nutsedge, Yellow plant response rating: 500 g ai/ha
Method in brief: as §1

pigweed = assay: Test C pre-/postemergence herbicide test; format: in vivo, Amaranthus retroflexus; conditions: for Pigweed plant response rating: 500 g ai/ha
Method in brief: as §1

ducksalad = assay: Test C flooded paddy test; format: in vivo, Heteranthera limosa; conditions: for Plant response rating, Ducksalad: 500 g ai/ha, visual rating after 12 to 14 days
barnyardgrass = assay: Test C flooded paddy test; format: in vivo, Echinochloa crus-galli; conditions: for Plant response rating, Barnyardgrass: 500 g ai/ha, visual rating after 12 to 14 days
Method in brief: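 Injury scored visually against controls on a 0 (no effect) to 100 (complete control) scale, 12 to 14 days after treatment in greenhouse. Flooded paddy plants treated at 2-leaf stage; postemergence plants at 1- to 4-leaf stage, 2 to 18 cm tall.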

[3] = Postemergence, 500 g ai/ha, 0 to 100 scale, 0 no effect, 100 complete control
[4] = Postemergence, 2000 g ai/ha, 0 to 100 scale, 0 no effect, 100 complete control
[5] = 500 g ai/ha, visual rating 0-100, 0 no effect, 100 complete control, preemergence
[6] = 125 g ai/ha, scale 0 (no effect) to 100 (complete control)
[7] = 125 g ai/ha, scale 0 (no effect) to 100 (complete control), visual, 12 to 14 days, preemergence
[8] = 250 g ai/ha, scale 0 to 100 (0 no effect, 100 complete control), visual, 12 to 14 days, preemergence
[9] = Postemergence, 250 g ai/ha, scale 0 to 100, 0 no effect, 100 complete control
[10] = Preemergence, scale 0 to 100, 0 no effect, 100 complete control
[11] = postemergence, 125 g ai/ha, scale 0 to 100
[12] = postemergence, 62 g ai/ha, scale 0 to 100
[13] = 62 g ai/ha, scale 0 to 100 (0 no effect, 100 complete control)
[14] = 125 g ai/ha, scale of 0 to 100, 0 is no effect, 100 is complete control
[15] = 250 g ai/ha, scale of 0 to 100, 0 is no effect, 100 is complete control
[16] = scale 0 to 100 (0 no effect, 100 complete control)
[17] = 62 g ai/ha, preemergence, scale 0 to 100
[18] = 250 g ai/ha, scale 0-100, preemergence
[19] = 125 g ai/ha, scale 0 to 100 (0 no effect, 100 complete control)

SMILES: CCOC(=O)c1cc(NC(=O)c2cc(C(C)(C)C)nn2CC)ccc1OC [Compound 96]
- Foxtail, Giant plant response rating (giant foxtail [1]; [3]): 60
- Plant response rating, Foxtail, Giant (giant foxtail [1]; [4]): 80
- Foxtail, Giant plant response rating (giant foxtail [1]; Preemergence, 500 g ai/ha, visual rating, 0 to 100 scale (0 no effect, 100 complete control)): 75
- Foxtail, Giant plant response rating (giant foxtail [1]; Preemergence, 2000 g ai/ha, 0 to 100 scale, 0 no effect, 100 complete control): 95
- Plant response rating, Foxtail, Giant (giant foxtail [2]; [5]): 90
- Plant response rating, Foxtail, Giant (giant foxtail [2]; Postemergence, 500 g ai/ha, visual rating after 13 to 15 days, scale 0 (no effect) to 100 (complete control)): 50
- Foxtail, Giant plant response rating (giant foxtail [2]; [6]): 30
- Plant response rating, Foxtail, Giant (giant foxtail [2]; preemergence, 125 g ai/ha, 0 to 100 scale, 0 is no effect, 100 is complete control): 60
- Plant response rating (0 = no effect, 100 = complete control), Cocklebur (cocklebur; 62 g ai/ha, preemergence): 0
- Plant response rating, Cocklebur (cocklebur; [7]): 5
- Plant response rating, Cocklebur (cocklebur; [8]): 20
- Cocklebur plant response rating (cocklebur; Postemergence, scale 0 to 100): 95
- Plant response rating, Cocklebur (cocklebur; [9]): 90
- Cocklebur plant response rating (cocklebur; [10]): 90
- Plant response rating, Cocklebur (cocklebur; [11]): 10
- Plant response rating, Cocklebur (cocklebur; [12]): 5
- Plant response rating (0 = no effect, 100 = complete control), Corn (corn; 62 g ai/ha, preemergence): 15
- Plant response rating, Corn (corn; [7]): 15
- Plant response rating, Corn (corn; [8]): 30
- Corn plant response rating (corn; Postemergence, scale 0 to 100): 45
- Plant response rating, Corn (corn; [9]): 35
- Corn plant response rating (corn; [10]): 40
- Plant response rating, Corn (corn; [11]): 30
- Plant response rating, Corn (corn; [12]): 30
- Plant response rating (0 = no effect, 100 = complete control), Kochia (kochia; 62 g ai/ha, preemergence): 90
- Plant response rating, Kochia (kochia; [7]): 95
- Kochia plant response rating (kochia; Postemergence, scale 0 to 100): 90
- Plant response rating, Kochia (kochia; [9]): 85
- Kochia plant response rating (kochia; [10]): 100
- Plant response rating, Kochia (kochia; [11]): 80
- Plant response rating, Kochia (kochia; [12]): 80
- Plant response rating (0 = no effect, 100 = complete control), Nutsedge, Yellow (yellow nutsedge; 62 g ai/ha, preemergence): 0
- Plant response rating, Nutsedge, Yellow (yellow nutsedge; [7]): 0
- Nutsedge, Yellow plant response rating (yellow nutsedge; Postemergence, scale 0 to 100): 5
- Plant response rating, Nutsedge, Yellow (yellow nutsedge; [9]): 5
- Nutsedge, Yellow plant response rating (yellow nutsedge; [10]): 10
- Plant response rating, Nutsedge, Yellow (yellow nutsedge; [11]): 0
- Plant response rating, Nutsedge, Yellow (yellow nutsedge; [12]): 0
- Plant response rating (0 = no effect, 100 = complete control), Pigweed (pigweed; 62 g ai/ha, preemergence): 100
- Plant response rating, Pigweed (pigweed; [7]): 100
- Pigweed plant response rating (pigweed; Postemergence, scale 0 to 100): 100
- Plant response rating, Pigweed (pigweed; [9]): 100
- Pigweed plant response rating (pigweed; [10]): 100
- Plant response rating, Pigweed (pigweed; [11]): 100
- Plant response rating, Pigweed (pigweed; [12]): 70
- Ducksalad plant response rating (ducksalad; [13]): 45
- Ducksalad plant response rating (ducksalad; [14]): 45
- Ducksalad plant response rating (ducksalad; [15]): 75
- Plant response rating, Ducksalad (ducksalad; [16]): 90
- Barnyardgrass plant response rating (barnyardgrass; [13]): 45
- Barnyardgrass plant response rating (barnyardgrass; [14]): 45
- Barnyardgrass plant response rating (barnyardgrass; [15]): 70
- Plant response rating, Barnyardgrass (barnyardgrass; [16]): 80

SMILES: C=CCNC(=O)c1cccc(NC(=O)c2sc(C(C)(C)C)nc2CC)c1 [Compound 207]
- Foxtail, Giant plant response rating (giant foxtail [1]; [3]): 10
- Plant response rating, Foxtail, Giant (giant foxtail [1]; [4]): 50
- Foxtail, Giant plant response rating (giant foxtail [1]; Preemergence, 2000 g ai/ha, visual rating, 0 to 100 scale (0 no effect, 100 complete control)): 90
- Foxtail, Giant plant response rating (giant foxtail [1]; preemergence, 500 g ai/ha, visual injury, 0 to 100 scale (0 no effect, 100 complete control)): 75
- Foxtail, Giant plant response rating (0 to 100 scale) (giant foxtail [2]; 125 g ai/ha, 0 = no effect, 100 = complete control, preemergence): 50
- Plant response rating, Foxtail, Giant (giant foxtail [2]; [5]): 90
- Foxtail, Giant plant response rating (giant foxtail [2]; [6]): 20
- Foxtail, Giant plant response rating (giant foxtail [2]; 500 g ai/ha, scale 0 (no effect) to 100 (complete control)): 20
- Plant response rating, Cocklebur (cocklebur; [17]): 0
- Plant response rating, Cocklebur (cocklebur; [7]): 0
- Plant response rating, Cocklebur (cocklebur; [18]): 0
- Cocklebur plant response rating (cocklebur; [10]): 0
- Plant response rating, Corn (corn; [17]): 0
- Plant response rating, Corn (corn; [7]): 0
- Plant response rating, Corn (corn; [18]): 5
- Corn plant response rating (corn; [10]): 20
- Plant response rating, Kochia (kochia; [17]): 90
- Plant response rating, Kochia (kochia; [7]): 90
- Plant response rating, Kochia (kochia; [18]): 90
- Kochia plant response rating (kochia; [10]): 95
- Plant response rating, Nutsedge, Yellow (yellow nutsedge; [17]): 0
- Plant response rating, Nutsedge, Yellow (yellow nutsedge; [7]): 0
- Plant response rating, Nutsedge, Yellow (yellow nutsedge; [18]): 20
- Nutsedge, Yellow plant response rating (yellow nutsedge; [10]): 20
- Plant response rating, Pigweed (pigweed; [17]): 100
- Plant response rating, Pigweed (pigweed; [7]): 100
- Plant response rating, Pigweed (pigweed; [18]): 100
- Pigweed plant response rating (pigweed; [10]): 100
- Ducksalad plant response rating (ducksalad; [13]): 55
- Ducksalad plant response rating (ducksalad; [19]): 80
- Ducksalad plant response rating (ducksalad; [15]): 80
- Plant response rating, Ducksalad (ducksalad; [16]): 85
- Barnyardgrass plant response rating (barnyardgrass; [13]): 45
- Barnyardgrass plant response rating (barnyardgrass; [19]): 65
- Barnyardgrass plant response rating (barnyardgrass; [15]): 75
- Plant response rating, Barnyardgrass (barnyardgrass; [16]): 85
